# Experimental data from PMC8330742, “New benzothieno[2,3-c]pyridines as non-steroidal CYP17 inhibitors: design, synthesis, anticancer screening, apoptosis induction, and in silico ADME profile studies” (Journal of Enzyme Inhibition and Medicinal Chemistry, 2021).
# Experiments:
# K-562 = assay: NCI-60 SRB screen; format: cell-based, human; conditions: K-562;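 for IC50: half-maximal inhibitory concentration read as cell viability unlike GI50 net growth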
# MOLT-4 = assay: NCI-60 SRB screen; format: cell-based; conditions: MOLT-4;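 for IC50: half-maximal inhibitory concentration read as cell viability unlike GI50 net growth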
# [1] = system: panel of 60 cancer cell lines; assay: NCI-60 SRB screen, mean or range over the panel; format: cell-based, human; conditions: Homo sapiens
# MALME-3M = assay: NCI-60 SRB screen; format: cell-based, human;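 for IC50: half-maximal inhibitory concentration read as cell viability unlike GI50 net growth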
# NCI/ADR-RES = assay: NCI-60 SRB screen; format: cell-based, human;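 for IC50: half-maximal inhibitory concentration read as cell viability unlike GI50 net growth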
# HL-60(TB) = assay: NCI-60 SRB screen; format: cell-based, human
# HCT-116 = assay: NCI-60 SRB screen; format: cell-based, human; conditions: HCT-116
# A549/ATCC = assay: NCI-60 SRB screen; format: cell-based, human
# OVCAR-4 = assay: NCI-60 SRB screen; format: cell-based, human; conditions: OVCAR-4
# SW-620 = assay: NCI-60 SRB screen; format: cell-based; conditions: SW-620
# CCRF-CEM = assay: NCI-60 SRB screen; format: cell-based
# EKVX = assay: NCI-60 SRB screen; format: cell-based, human
# UO-31 = assay: NCI-60 SRB screen; format: cell-based, human; conditions: UO-31
# TK-10 = assay: NCI-60 SRB screen; format: cell-based, human; conditions: TK-10
# NCI-H322M = assay: NCI-60 SRB screen; format: cell-based, human
# NCI-H522 = assay: NCI-60 SRB screen; format: cell-based, human; conditions: NCI-H522
# NCI-H460 = assay: NCI-60 SRB screen; format: cell-based, human; conditions: NCI-H460
# UACC-257 = assay: NCI-60 SRB screen; format: cell-based, human; conditions: UACC-257
# SK-MEL-2 = assay: NCI-60 SRB screen; format: cell-based, human; conditions: SK-MEL-2
# UACC-62 = assay: NCI-60 SRB screen; format: cell-based, human; conditions: UACC-62
# HT-29 = assay: NCI-60 SRB screen; format: cell-based
# NCI-H23 = assay: NCI-60 SRB screen; format: cell-based, human; conditions: NCI-H23
# M14 = assay: NCI-60 SRB screen; format: cell-based, human; conditions: Homo sapiens; M14; five dose
# [2] = Homo sapiens, single dose 10^−5 M, read-out: Growth inhibition (%)
# [3] = Homo sapiens, HT-29, HT29, five dose
structure (smiles),measurement,setting,value
"N#CC1C(=O)NC(c2ccccc2[N+](=O)[O-])c2sc3c(F)cccc3c21 (stereo not shown) [Compound 5c, 4-Cyano-8-fluoro-1-(2-nitrophenyl)-1,2-dihydro[1]benzothieno[2,3-c] pyridin-3(4H)-one]",GI50,"K-562; Homo sapiens, K562, five dose",1.98 µM
same,IC50,"K-562; Homo sapiens, K562, five dose",3.16 µM
same,inhibition at 10 µM,"K-562; Homo sapiens, K562, single dose 10^−5 M, read-out: Growth inhibition (%)",64.1%
same,TGI,K-562; five dose,100 µM
same,GI50,"MOLT-4; Homo sapiens, five dose",19.1 µM
same,IC50,"MOLT-4; Homo sapiens, five dose",30.9 µM
same,LC50 (50% lethal concentration),"MOLT-4; Homo sapiens, five dose",> 100 µM
same,inhibition at 10 µM,MOLT-4; [2],13.5%
same,TGI,MOLT-4; five dose,100 µM
same,GI50,"[1]; mean graph midpoint over all tested cell lines, five dose, read-out: MG-MID GI50",0.21 µM
same,inhibition at 10 µM,"[1]; mean over the cell lines, single dose 10^−5 M, read-out: Mean growth inhibition (%)",46.9%
same,GI50,"MALME-3M; Homo sapiens, five dose",22.6 µM
same,IC50,"MALME-3M; Homo sapiens, five dose",83.2 µM
same,inhibition at 10 µM,MALME-3M; [2],25.3%
same,TGI,MALME-3M; five dose,100 µM
same,GI50,"NCI/ADR-RES; Homo sapiens, five dose",8.21 µM
same,IC50,"NCI/ADR-RES; Homo sapiens, five dose",16.6 µM
same,inhibition at 10 µM,NCI/ADR-RES; [2],31.5%
same,TGI,NCI/ADR-RES; five dose,100 µM
same,TGI,"HL-60(TB); HL-60(TB), five dose",100 µM
same,GI50,"HL-60(TB); Homo sapiens, HL-60",14.2 µM
same,IC50,"HL-60(TB); Homo sapiens, HL-60",28.2 µM
same,inhibition at 10 µM,"HL-60(TB); Homo sapiens, HL-60, read-out: Growth inhibition (%)",18.8%
same,TGI,HCT-116; five dose,44.50 µM
same,GI50,"HCT-116; Homo sapiens, five dose",0.14 µM
same,IC50,"HCT-116; Homo sapiens, five dose",0.195 µM
same,inhibition at 10 µM,HCT-116; [2],89%
same,GI50,"A549/ATCC; Homo sapiens, five dose",1.31 µM
same,IC50,"A549/ATCC; Homo sapiens, five dose",2.34 µM
same,inhibition at 10 µM,A549/ATCC; [2],52.8%
same,TGI,A549/ATCC; five dose,100 µM
same,GI50,"OVCAR-4; Homo sapiens, five dose",1.61 µM
same,IC50,"OVCAR-4; Homo sapiens, five dose",24.5 µM
same,inhibition at 10 µM,OVCAR-4; [2],100%
same,TGI,OVCAR-4; five dose,100 µM
same,GI50,"SW-620; Homo sapiens, five dose",0.37 µM
same,IC50,"SW-620; Homo sapiens, five dose",0.676 µM
same,LC50 (50% lethal concentration),"SW-620; Homo sapiens, five dose",> 100 µM
same,inhibition at 10 µM,SW-620; [2],88.1%
same,TGI,SW-620; five dose,100 µM
same,GI50,"CCRF-CEM; Homo sapiens, five dose",26.3 µM
same,IC50,"CCRF-CEM; Homo sapiens, five dose",37.2 µM
same,LC50,"CCRF-CEM; Homo sapiens, five dose",> 100 µM
same,inhibition at 10 µM,CCRF-CEM; [2],13.2%
same,TGI,CCRF-CEM; five dose,100 µM
same,GI50,"EKVX; Homo sapiens, five dose",2.69 µM
same,IC50,"EKVX; Homo sapiens, five dose",13.8 µM
same,inhibition at 10 µM,EKVX; [2],35.3%
same,TGI,EKVX; five dose,100 µM
same,GI50,"UO-31; Homo sapiens, five dose",10.7 µM
same,IC50,"UO-31; Homo sapiens, five dose",19.5 µM
same,inhibition at 10 µM,UO-31; [2],46.2%
same,TGI,UO-31; five dose,55.20 µM
same,GI50,"TK-10; Homo sapiens, five dose",17.7 µM
same,IC50,"TK-10; Homo sapiens, five dose",72.4 µM
same,inhibition at 10 µM,TK-10; [2],58.9%
same,TGI,TK-10; five dose,100 µM
same,GI50,"NCI-H322M; Homo sapiens, five dose",7.37 µM
same,IC50,"NCI-H322M; Homo sapiens, five dose",23.4 µM
same,inhibition at 10 µM,NCI-H322M; [2],98%
same,TGI,NCI-H322M; five dose,100 µM
same,GI50,"NCI-H522; Homo sapiens, five dose",18.4 µM
same,IC50,"NCI-H522; Homo sapiens, five dose",41.7 µM
same,inhibition at 10 µM,NCI-H522; [2],17.3%
same,TGI,NCI-H522; five dose,100 µM
same,GI50,"NCI-H460; Homo sapiens, five dose",0.29 µM
same,IC50,"NCI-H460; Homo sapiens, five dose",0.372 µM
same,inhibition at 10 µM,NCI-H460; [2],11.5%
same,TGI,NCI-H460; five dose,100 µM
same,inhibition at 10 µM,"UACC-257; Homo sapiens, UACC-275 (so in the source), single dose 10^−5 M, read-out: Growth inhibition (%)",137%
same,GI50,"UACC-257; Homo sapiens, five dose",1.73 µM
same,IC50,"UACC-257; Homo sapiens, five dose",5.89 µM
same,TGI,UACC-257; five dose,100 µM
same,GI50,"SK-MEL-2; Homo sapiens, five dose",12.7 µM
same,IC50,"SK-MEL-2; Homo sapiens, five dose",33.9 µM
same,inhibition at 10 µM,SK-MEL-2; [2],7.4%
same,TGI,SK-MEL-2; five dose,100 µM
same,GI50,"UACC-62; Homo sapiens, five dose",0.36 µM
same,IC50,"UACC-62; Homo sapiens, five dose",1.78 µM
same,inhibition at 10 µM,UACC-62; [2],90.6%
same,TGI,UACC-62; five dose,47.20 µM
same,TGI,"HT-29; HT29, five dose",100 µM
same,GI50,HT-29; [3],19.6 µM
same,IC50,HT-29; [3],25.7 µM
same,LC50 (concentration killing 50% of cells),HT-29; [3],> 100 µM
same,inhibition at 10 µM,"HT-29; Homo sapiens, HT-29, single dose 10^−5 M, read-out: Growth inhibition (%)",14.7%
same,GI50,"NCI-H23; Homo sapiens, five dose",7.33 µM
same,IC50,"NCI-H23; Homo sapiens, five dose",19.5 µM
same,inhibition at 10 µM,NCI-H23; [2],32.9%
same,TGI,NCI-H23; five dose,100 µM
same,GI50,M14,16.3 µM
